Measurements: ChEMBL document CHEMBL1131723, “Synthesis and structure-activity relationship of novel glycylcycline derivatives leading to the discovery of GAR-936” (1999)
Values after ≈ are worked out from the molar mass of the structure shown.

Legend:
Type in all cases: functional
[1] = test system: Escherichia coli; test: In vitro antibacterial activity against Escherichia coli J3272 Tet C
[2] = test system: Staphylococcus aureus; test: In vitro antibacterial activity against Staphylococcus aureus UBMS 90-1 Tet M
[3] = test system: Escherichia coli; test: In vitro antibacterial activity against Escherichia coli J3272 Tet D
[4] = test system: Escherichia coli; test: In vitro antibacterial activity against Escherichia coli UBMS 88-1 Tet B
[5] = test system: Escherichia coli; test: In vitro antibacterial activity against Escherichia coli UBMS 90-5 sensitive
[6] = test system: Staphylococcus aureus; test: In vitro antibacterial activity against Staphylococcus aureus Smith sensitive
[7] = test system: Staphylococcus aureus; test: In vitro antibacterial activity against Staphylococcus aureus UBMS 88-7 Tet K
[8] = test system: Enterococcus; test: In vitro antibacterial activity against Enterococcus ATCC 29212
[9] = test system: Staphylococcus aureus; test: In vitro antibacterial activity against Staphylococcus aureus UBMS 90-3 sensitive
[10] = test system: Escherichia coli; test: In vitro antibacterial activity against Escherichia coli PRP1 Tet A
[11] = test system: Escherichia coli; test: In vitro antibacterial activity against Escherichia coli UBMS 90-4 Tet M

MIC [1] [µg/mL]	MIC [2] [µg/mL]	MIC [3] [µg/mL]	MIC [4] [µg/mL]	MIC [5] [µg/mL]	MIC [6] [µg/mL]	MIC [7] [µg/mL]	MIC [8] [µg/mL]	MIC [9] [µg/mL]	MIC [10] [µg/mL]	MIC [11] [µg/mL]	Compound
> 32	1 (≈ 1.69 µM)	32 (≈ 53.9 µM)	> 32	16 (≈ 27 µM)	0.5 (≈ 0.843 µM)	2 (≈ 3.37 µM)	0.5 (≈ 0.843 µM)	0.5 (≈ 0.843 µM)	> 32		CN(C)c1cc(NC(=O)CBr)c(O)c2c1CC1CC3[C@H](N(C)C)C(=O)C(C(N)=O)=C(O)[C@@]3(O)C(=O)C1=C2O (stereo not given in full)
8 (≈ 14 µM)	0.5 (≈ 0.878 µM)	2 (≈ 3.51 µM)	4 (≈ 7.02 µM)	2 (≈ 3.51 µM)	0.25 (≈ 0.439 µM)	4 (≈ 7.02 µM)	0.25 (≈ 0.439 µM)	0.5 (≈ 0.878 µM)	32 (≈ 56.2 µM)	2 (≈ 3.51 µM)	CN(C)c1cc(NC(=O)CNC2CC2)c(O)c2c1CC1CC3[C@H](N(C)C)C(=O)C(C(N)=O)=C(O)[C@@]3(O)C(=O)C1=C2O (stereo not given in full)
0.5 (≈ 0.802 µM)	0.5 (≈ 0.802 µM)	0.25 (≈ 0.401 µM)	0.5 (≈ 0.802 µM)	0.5 (≈ 0.802 µM)	0.25 (≈ 0.401 µM)	0.5 (≈ 0.802 µM)	0.12 (≈ 0.192 µM)	0.25 (≈ 0.401 µM)	1 (≈ 1.6 µM)	0.5 (≈ 0.802 µM)	CN(C)c1cc(NC(=O)CNC2CC3CCC2C3)c(O)c2c1CC1CC3[C@H](N(C)C)C(=O)C(C(N)=O)=C(O)[C@@]3(O)C(=O)C1=C2O (stereo not given in full)
0.25 (≈ 0.418 µM)	0.25 (≈ 0.418 µM)	0.5 (≈ 0.837 µM)	0.5 (≈ 0.837 µM)	0.5 (≈ 0.837 µM)	0.12 (≈ 0.201 µM)	0.25 (≈ 0.418 µM)	0.06 (≈ 0.1 µM)	0.12 (≈ 0.201 µM)	1 (≈ 1.67 µM)	0.5 (≈ 0.837 µM)	CN(C)c1cc(NC(=O)CN2CCCCC2)c(O)c2c1CC1CC3[C@H](N(C)C)C(=O)C(C(N)=O)=C(O)[C@@]3(O)C(=O)C1=C2O (stereo not given in full)
16 (≈ 25.8 µM)	8 (≈ 12.9 µM)	8 (≈ 12.9 µM)	16 (≈ 25.8 µM)	16 (≈ 25.8 µM)	4 (≈ 6.44 µM)	32 (≈ 51.6 µM)	2 (≈ 3.22 µM)	4 (≈ 6.44 µM)	32 (≈ 51.6 µM)	8 (≈ 12.9 µM)	CN(C)c1cc(NC(=O)CNCc2ccccn2)c(O)c2c1CC1CC3[C@H](N(C)C)C(=O)C(C(N)=O)=C(O)[C@@]3(O)C(=O)C1=C2O (stereo not given in full)
0.5 (≈ 0.875 µM)	0.5 (≈ 0.875 µM)	0.12 (≈ 0.21 µM)	0.5 (≈ 0.875 µM)	0.5 (≈ 0.875 µM)	0.25 (≈ 0.437 µM)	2 (≈ 3.5 µM)	0.25 (≈ 0.437 µM)	0.25 (≈ 0.437 µM)	2 (≈ 3.5 µM)	0.25 (≈ 0.437 µM)	CCCNCC(=O)Nc1cc(N(C)C)c2c(c1O)C(=O)C1=C(O)[C@]3(O)C(O)=C(C(N)=O)C(=O)[C@@H](N(C)C)C3CC1C2 (stereo not given in full)
2 (≈ 3.13 µM)	1 (≈ 1.56 µM)	0.5 (≈ 0.782 µM)	4 (≈ 6.25 µM)	4 (≈ 6.25 µM)	0.5 (≈ 0.782 µM)	0.5 (≈ 0.782 µM)	0.25 (≈ 0.391 µM)	0.25 (≈ 0.391 µM)	2 (≈ 3.13 µM)	2 (≈ 3.13 µM)	CN(C)c1cc(NC(=O)CNC2CCCCCCC2)c(O)c2c1CC1CC3[C@H](N(C)C)C(=O)C(C(N)=O)=C(O)[C@@]3(O)C(=O)C1=C2O (stereo not given in full)
32 (≈ 46.8 µM)	16 (≈ 23.4 µM)	32 (≈ 46.8 µM)	32 (≈ 46.8 µM)	16 (≈ 23.4 µM)	0.5 (≈ 0.731 µM)	2 (≈ 2.92 µM)	2 (≈ 2.92 µM)	0.5 (≈ 0.731 µM)	32 (≈ 46.8 µM)	32 (≈ 46.8 µM)	CCCCCCCCCCCNCC(=O)Nc1cc(N(C)C)c2c(c1O)C(=O)C1=C(O)[C@]3(O)C(O)=C(C(N)=O)C(=O)[C@@H](N(C)C)C3CC1C2 (stereo not given in full)
> 32	> 32	8 (≈ 18 µM)	> 32	1 (≈ 2.25 µM)	0.25 (≈ 0.563 µM)	> 32	16 (≈ 36 µM)	0.25 (≈ 0.563 µM)	32 (≈ 72 µM)	> 32	CN(C)[C@@H]1C(O)=C(C(N)=O)C(=O)[C@@]2(O)C(O)=C3C(=O)c4c(O)cccc4[C@@](C)(O)[C@H]3C[C@@H]12 [TETRACYCLINE]
> 32	1 (≈ 1.62 µM)	16 (≈ 26 µM)	> 32	> 32	0.5 (≈ 0.812 µM)	4 (≈ 6.5 µM)	0.25 (≈ 0.406 µM)	1 (≈ 1.62 µM)	> 32	> 32	CN(C)c1cc(NC(=O)CN2CCSCC2)c(O)c2c1CC1CC3[C@H](N(C)C)C(=O)C(C(N)=O)=C(O)[C@@]3(O)C(=O)C1=C2O (stereo not given in full)
0.5 (≈ 0.815 µM)	0.25 (≈ 0.407 µM)	0.12 (≈ 0.196 µM)	0.5 (≈ 0.815 µM)	0.25 (≈ 0.407 µM)	0.12 (≈ 0.196 µM)	2 (≈ 3.26 µM)	0.12 (≈ 0.196 µM)	0.06 (≈ 0.0978 µM)	0.5 (≈ 0.815 µM)	0.25 (≈ 0.407 µM)	CCCCCCNCC(=O)Nc1cc(N(C)C)c2c(c1O)C(=O)C1=C(O)[C@]3(O)C(O)=C(C(N)=O)C(=O)[C@@H](N(C)C)C3CC1C2 (stereo not given in full)
> 32	4 (≈ 6.67 µM)	32 (≈ 53.4 µM)	> 32	> 32	2 (≈ 3.34 µM)	32 (≈ 53.4 µM)	2 (≈ 3.34 µM)	2 (≈ 3.34 µM)	> 32		CN(C)c1cc(NC(=O)CN2CCOCC2)c(O)c2c1CC1CC3[C@H](N(C)C)C(=O)C(C(N)=O)=C(O)[C@@]3(O)C(=O)C1=C2O (stereo not given in full)
0.25 (≈ 0.428 µM)	0.12 (≈ 0.206 µM)	0.12 (≈ 0.206 µM)	0.25 (≈ 0.428 µM)	0.25 (≈ 0.428 µM)	0.12 (≈ 0.206 µM)	0.5 (≈ 0.857 µM)	0.12 (≈ 0.206 µM)	0.12 (≈ 0.206 µM)	0.5 (≈ 0.857 µM)	0.25 (≈ 0.428 µM)	CN(C)c1cc(NC(=O)CN2CCCC2)c(O)c2c1CC1CC3[C@H](N(C)C)C(=O)C(C(N)=O)=C(O)[C@@]3(O)C(=O)C1=C2O (stereo not given in full)
0.5 (≈ 0.878 µM)	0.25 (≈ 0.439 µM)	0.12 (≈ 0.211 µM)	0.5 (≈ 0.878 µM)	0.25 (≈ 0.439 µM)	0.25 (≈ 0.439 µM)	2 (≈ 3.51 µM)	0.25 (≈ 0.439 µM)	0.12 (≈ 0.211 µM)	1 (≈ 1.76 µM)	0.25 (≈ 0.439 µM)	CN(C)c1cc(NC(=O)CN2CCC2)c(O)c2c1CC1CC3[C@H](N(C)C)C(=O)C(C(N)=O)=C(O)[C@@]3(O)C(=O)C1=C2O (stereo not given in full)
0.5 (≈ 0.857 µM)	1 (≈ 1.71 µM)	0.25 (≈ 0.428 µM)	0.5 (≈ 0.857 µM)	0.5 (≈ 0.857 µM)	0.5 (≈ 0.857 µM)	4 (≈ 6.85 µM)	0.25 (≈ 0.428 µM)	0.5 (≈ 0.857 µM)	4 (≈ 6.85 µM)	0.5 (≈ 0.857 µM)	CN(C)c1cc(NC(=O)CNCC2CC2)c(O)c2c1CC1CC3[C@H](N(C)C)C(=O)C(C(N)=O)=C(O)[C@@]3(O)C(=O)C1=C2O (stereo not given in full)
0.25 (≈ 0.427 µM)	0.12 (≈ 0.205 µM)	0.12 (≈ 0.205 µM)	0.5 (≈ 0.854 µM)	0.25 (≈ 0.427 µM)	0.25 (≈ 0.427 µM)	0.5 (≈ 0.854 µM)	0.12 (≈ 0.205 µM)	0.25 (≈ 0.427 µM)	0.25 (≈ 0.427 µM)	0.12 (≈ 0.205 µM)	CN(C)c1cc(NC(=O)CNC(C)(C)C)c(O)c2c1C[C@H]1C[C@H]3[C@H](N(C)C)C(O)=C(C(N)=O)C(=O)[C@@]3(O)C(O)=C1C2=O [TIGECYCLINE]
0.25 (≈ 0.418 µM)	0.25 (≈ 0.418 µM)	0.12 (≈ 0.201 µM)	0.25 (≈ 0.418 µM)	0.25 (≈ 0.418 µM)	0.25 (≈ 0.418 µM)	2 (≈ 3.35 µM)	0.12 (≈ 0.201 µM)	0.12 (≈ 0.201 µM)	1 (≈ 1.67 µM)	0.25 (≈ 0.418 µM)	CN(C)c1cc(NC(=O)CNC2CCCC2)c(O)c2c1CC1CC3[C@H](N(C)C)C(=O)C(C(N)=O)=C(O)[C@@]3(O)C(=O)C1=C2O (stereo not given in full)
0.5 (≈ 0.854 µM)	0.5 (≈ 0.854 µM)	0.25 (≈ 0.427 µM)	0.5 (≈ 0.854 µM)	0.5 (≈ 0.854 µM)	0.12 (≈ 0.205 µM)	2 (≈ 3.41 µM)	0.12 (≈ 0.205 µM)	0.25 (≈ 0.427 µM)	1 (≈ 1.71 µM)	0.25 (≈ 0.427 µM)	CCCCNCC(=O)Nc1cc(N(C)C)c2c(c1O)C(=O)C1=C(O)[C@]3(O)C(O)=C(C(N)=O)C(=O)[C@@H](N(C)C)C3CC1C2 (stereo not given in full)
32 (≈ 69.9 µM)	8 (≈ 17.5 µM)	4 (≈ 8.74 µM)	> 32	16 (≈ 35 µM)	2 (≈ 4.37 µM)	16 (≈ 35 µM)	4 (≈ 8.74 µM)	2 (≈ 4.37 µM)	> 32	16 (≈ 35 µM)	CN(C)c1ccc(O)c2c1C[C@H]1C[C@H]3[C@H](N(C)C)C(O)=C(C(N)=O)C(=O)[C@@]3(O)C(O)=C1C2=O [MINOCYCLINE]
> 32	32 (≈ 55.1 µM)	32 (≈ 55.1 µM)	> 32	> 32	4 (≈ 6.89 µM)	32 (≈ 55.1 µM)	4 (≈ 6.89 µM)	4 (≈ 6.89 µM)	> 32	> 32	CN(C)c1cc(NC(=O)Cn2ccnc2)c(O)c2c1CC1CC3[C@H](N(C)C)C(=O)C(C(N)=O)=C(O)[C@@]3(O)C(=O)C1=C2O (stereo not given in full)
1 (≈ 1.79 µM)	0.25 (≈ 0.448 µM)	0.12 (≈ 0.215 µM)	0.25 (≈ 0.448 µM)	0.25 (≈ 0.448 µM)	0.06 (≈ 0.108 µM)	0.25 (≈ 0.448 µM)	0.06 (≈ 0.108 µM)	0.03 (≈ 0.0538 µM)	1 (≈ 1.79 µM)	0.25 (≈ 0.448 µM)	CN(C)CC(=O)Nc1cc(N(C)C)c2c(c1O)C(=O)C1=C(O)[C@]3(O)C(O)=C(C(N)=O)C(=O)[C@@H](N(C)C)C3CC1C2 (stereo not given in full)
8 (≈ 14.7 µM)	1 (≈ 1.84 µM)	0.5 (≈ 0.92 µM)	1 (≈ 1.84 µM)	1 (≈ 1.84 µM)	0.5 (≈ 0.92 µM)	16 (≈ 29.4 µM)	0.5 (≈ 0.92 µM)	0.5 (≈ 0.92 µM)	16 (≈ 29.4 µM)		CNCC(=O)Nc1cc(N(C)C)c2c(c1O)C(=O)C1=C(O)[C@]3(O)C(O)=C(C(N)=O)C(=O)[C@@H](N(C)C)C3CC1C2 (stereo not given in full)
2 (≈ 3.23 µM)	0.5 (≈ 0.807 µM)	0.5 (≈ 0.807 µM)	2 (≈ 3.23 µM)	0.5 (≈ 0.807 µM)	0.25 (≈ 0.403 µM)	2 (≈ 3.23 µM)	0.25 (≈ 0.403 µM)	0.25 (≈ 0.403 µM)	4 (≈ 6.45 µM)	0.5 (≈ 0.807 µM)	CN(C)c1cc(NC(=O)CNCc2ccccc2)c(O)c2c1CC1CC3[C@H](N(C)C)C(=O)C(C(N)=O)=C(O)[C@@]3(O)C(=O)C1=C2O (stereo not given in full)
